Columns and labels:
[1] = test system: ERK1/2, Akt and p38; assay: Phosphorylation level of downstream mediators of TGF-β (Western Blot); type: cell-based, human; conditions: MRC-5, TGF-β1 treatment
Experimental: 1) Preparation of cell protein samples: the cell culture liquid was discarded, wash was performed once with PBS, and samples were collected by adding 1×SDS-Loading. after the samples were collected, they were placed in a metal bath at 100° C., and the samples were boiled for 10 minutes, and then the samples were stored at 4° C. for waiting for subsequent test.
2) Gel preparation and sample loading: according to the molecular weight of the detected protein, different concentrations of separation gel were selected. after filling the 1× electrophoresis buffer, an equal volume of protein sample 4 μl and protein marker were added on the far left to right in sequence. […]
8) Secondary antibodies: the film with the primary antibodies was rewarmed and incubated for about half an hour, and then the primary antibodies were recovered and the film was washed quickly with TBST solution 3 times, 10 minutes each time. […] The dilution ratio of the secondary antibody dedicated for DDR2 was 1:5000; The dilution ratio for the rest of the secondary antibodies were 1:8000, ready for use. […]
In addition, the phosphorylation level of the main downstream mediators of TGF-β was analyzed by Western Blot. […]

[2] = biological target: ErbB2 (Homo sapiens (Human), UniProt P04626); assay: Enzyme selectivity test (ELISA), ErbB2; type: biochemical
ErbB2, sequence (P04626 23-1255, species assumed): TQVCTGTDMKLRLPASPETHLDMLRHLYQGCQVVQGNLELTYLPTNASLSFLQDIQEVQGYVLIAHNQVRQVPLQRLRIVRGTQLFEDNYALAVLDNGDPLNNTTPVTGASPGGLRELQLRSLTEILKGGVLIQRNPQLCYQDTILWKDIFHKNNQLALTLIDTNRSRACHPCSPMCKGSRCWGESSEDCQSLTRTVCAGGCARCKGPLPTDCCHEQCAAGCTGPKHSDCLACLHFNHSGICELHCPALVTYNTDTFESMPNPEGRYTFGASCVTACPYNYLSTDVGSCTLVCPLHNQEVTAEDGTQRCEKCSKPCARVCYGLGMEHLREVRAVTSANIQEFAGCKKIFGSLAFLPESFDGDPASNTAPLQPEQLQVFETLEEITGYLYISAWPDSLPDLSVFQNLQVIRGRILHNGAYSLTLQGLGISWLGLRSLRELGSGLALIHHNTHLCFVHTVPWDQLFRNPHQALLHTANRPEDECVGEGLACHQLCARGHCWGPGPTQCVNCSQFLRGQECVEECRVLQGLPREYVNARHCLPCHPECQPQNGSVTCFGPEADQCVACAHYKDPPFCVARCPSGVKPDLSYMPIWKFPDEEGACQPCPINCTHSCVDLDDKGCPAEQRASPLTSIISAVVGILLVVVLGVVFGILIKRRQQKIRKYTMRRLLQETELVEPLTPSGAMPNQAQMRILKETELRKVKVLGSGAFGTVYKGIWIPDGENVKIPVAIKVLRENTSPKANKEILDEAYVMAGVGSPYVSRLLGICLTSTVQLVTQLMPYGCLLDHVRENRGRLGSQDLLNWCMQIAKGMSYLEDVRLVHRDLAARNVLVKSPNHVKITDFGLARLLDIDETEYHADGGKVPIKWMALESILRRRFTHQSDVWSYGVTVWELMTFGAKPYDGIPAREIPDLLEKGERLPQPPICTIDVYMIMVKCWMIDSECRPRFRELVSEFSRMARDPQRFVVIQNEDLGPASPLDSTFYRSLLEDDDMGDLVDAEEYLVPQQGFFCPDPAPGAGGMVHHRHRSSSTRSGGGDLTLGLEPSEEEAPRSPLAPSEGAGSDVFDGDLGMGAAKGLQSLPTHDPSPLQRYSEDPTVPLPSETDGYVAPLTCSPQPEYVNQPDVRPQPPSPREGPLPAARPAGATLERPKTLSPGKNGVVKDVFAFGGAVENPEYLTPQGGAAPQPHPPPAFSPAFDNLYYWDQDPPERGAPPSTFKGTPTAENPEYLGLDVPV
Experimental: (§1) 1) Enzyme reaction substrate Poly(Glu, Tyr) 4:1 was diluted to 20 μg/mL with potassium-free PBS (10 mM sodium phosphate buffer, 150 mM NaCl, pH 7.2-7.4), and the microtiter plate was coated with 125 μL/well and placed at 37° C. for 12-16 hours of reaction. The liquid in the well was discard. The plate was washed three times with T-PBS (potassium-free PBS containing 0.1% Tween-20, 200 μL/well), 5 minutes each time. The ELISA plate was dried in an oven at 37° C. for 1 to 2 hours.
(§2) 2) Reaction buffer (50 mM HEPES pH 7.4, 50 mM MgCl2, 0.5 mM MnCl2, 0.2 mM Na3VO4, 1 mM DTT) diluted ATP solution (49 μL) was added to each well, 1 μL of the compound to be tested was added to each well, and then 50 μL of DDR2 kinase domain recombinant protein diluted in the reaction buffer was added to start the reaction. Two control wells without ATP were set in each experiment. The plate placed on a shaker (100 rpm) at 37° C. for 1 hour of reaction. The liquid in the well was discarded and the plate was washed three times with T-PBS.
(§3) 3) Antibody PY99 dilution solution (the antibody was diluted 1:500 with T-PBS containing BSA 5 mg/mL) was added at 100 μL/well, and shaken on a shaker at 37° C. for 0.5 hour of reaction. The liquid in the well was discarded and the plate was washed three times with T-PBS.
(§4) 4) Horseradish peroxidase labeled goat anti-murine secondary antibody dilution solution (the antibody is diluted 1:2000 with T-PBS containing BSA 5 mg/ml) was added at 100 μL/well, and shaken on a shaker at 37° C. for 0.5 hour of reaction. The liquid in the well was discarded and the plate was washed three times with T-PBS.
(§5) 5) 2 mg/ml of OPD color developing solution [diluted with 0.1 M citric acid-sodium citrate buffer (pH=5.4) containing 0.03% H2O2] was added at 100 μL/well and reacted for 1 to 10 minutes at 25° C. in the dark.
(§6) 6) 2M H2SO4 was added at 50 μL/well to stop the reaction, and a tunable wavelength microplate reader VERSAmax was used for reading at a wavelength of 490 nm.
(§7) The IC50 value was obtained by four-parameter regression using the software that came with the microplate reader. […]

[3] = test system: bronchial epithelial cell line Beas-2B; assay: Cytotoxic activity test (MTS), Beas-2B; type: cell-based, human; conditions: 10 μM
Experimental: Experimental objective: The cytotoxic activity of compound S15 on bronchial epithelial cell line Beas-2B and lung fibroblast cell line MRC-5 was tested.
1) The human bronchial epithelial cell line Beas-2B and the human embryonic lung fibroblast cell line MRC-5 were collected, and inoculated at a certain density (about 5000-10000 cells) on a 96-well plate (the edge wells were filled with sterile water or PBS). A control was set on each plate (100 μL of culture medium was added);
2) The plate was incubated overnight at 37° C., 5% CO2. The plate was turned upside down and observed under the microscope.
3) The solutions of different concentrations of the compounds to be tested were added to each well, and a control well (culture medium and MTS solution with cells but no drug) and a blank well (without cells, medium and MTS solution) were set, 3 to 5 repetition wells were set for each group. Incubation was performed at 37° C. for 48-72 hours.
4) 10 μL/well of MTS/PMS (20:1, Promega Corp) solution was added to each well containing 100 μL of culture medium, and then the plate was gently shaken. The plate was incubated at 37° C. for 2 to 4 hours.
5) M5 microplate reader (Molecular Device, USA) was used to measure the absorbance of the solution at 490 nm. […]

[4] = biological target: C-Kit (Homo sapiens (Human), UniProt P10721); assay: Enzyme selectivity test (ELISA), C-Kit; type: biochemical
C-Kit, sequence (P10721 26-976): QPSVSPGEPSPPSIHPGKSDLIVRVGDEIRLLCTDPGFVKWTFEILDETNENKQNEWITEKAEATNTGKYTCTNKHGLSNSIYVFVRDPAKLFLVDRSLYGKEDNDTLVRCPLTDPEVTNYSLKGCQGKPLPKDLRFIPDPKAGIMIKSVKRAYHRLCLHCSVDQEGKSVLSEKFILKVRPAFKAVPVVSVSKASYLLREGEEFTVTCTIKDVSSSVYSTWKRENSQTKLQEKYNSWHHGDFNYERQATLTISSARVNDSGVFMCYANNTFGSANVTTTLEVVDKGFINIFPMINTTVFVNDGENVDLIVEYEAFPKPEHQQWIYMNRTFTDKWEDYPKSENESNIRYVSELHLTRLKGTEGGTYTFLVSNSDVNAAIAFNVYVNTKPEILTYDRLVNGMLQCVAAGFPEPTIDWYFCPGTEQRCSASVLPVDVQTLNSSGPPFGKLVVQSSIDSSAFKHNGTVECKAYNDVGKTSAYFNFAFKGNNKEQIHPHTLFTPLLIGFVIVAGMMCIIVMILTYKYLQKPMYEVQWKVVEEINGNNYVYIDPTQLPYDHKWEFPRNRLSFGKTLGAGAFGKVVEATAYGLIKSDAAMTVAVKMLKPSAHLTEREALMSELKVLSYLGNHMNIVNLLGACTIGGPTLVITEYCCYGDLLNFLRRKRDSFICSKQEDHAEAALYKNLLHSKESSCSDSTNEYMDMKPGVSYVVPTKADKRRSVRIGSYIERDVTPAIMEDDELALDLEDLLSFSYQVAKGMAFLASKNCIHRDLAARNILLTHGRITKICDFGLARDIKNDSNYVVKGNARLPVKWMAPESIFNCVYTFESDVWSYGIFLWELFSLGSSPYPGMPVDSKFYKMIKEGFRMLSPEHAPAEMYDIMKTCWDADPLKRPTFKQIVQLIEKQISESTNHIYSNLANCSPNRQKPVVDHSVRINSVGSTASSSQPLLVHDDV
Experimental: as §1, §2, §3, §4, §5, §6, §7

[5] = biological target: VEGFR-1 (Homo sapiens (Human), UniProt P17948); assay: Enzyme selectivity test (ELISA), VEGFR-1; type: biochemical
VEGFR-1, sequence (P17948 27-1338, species assumed): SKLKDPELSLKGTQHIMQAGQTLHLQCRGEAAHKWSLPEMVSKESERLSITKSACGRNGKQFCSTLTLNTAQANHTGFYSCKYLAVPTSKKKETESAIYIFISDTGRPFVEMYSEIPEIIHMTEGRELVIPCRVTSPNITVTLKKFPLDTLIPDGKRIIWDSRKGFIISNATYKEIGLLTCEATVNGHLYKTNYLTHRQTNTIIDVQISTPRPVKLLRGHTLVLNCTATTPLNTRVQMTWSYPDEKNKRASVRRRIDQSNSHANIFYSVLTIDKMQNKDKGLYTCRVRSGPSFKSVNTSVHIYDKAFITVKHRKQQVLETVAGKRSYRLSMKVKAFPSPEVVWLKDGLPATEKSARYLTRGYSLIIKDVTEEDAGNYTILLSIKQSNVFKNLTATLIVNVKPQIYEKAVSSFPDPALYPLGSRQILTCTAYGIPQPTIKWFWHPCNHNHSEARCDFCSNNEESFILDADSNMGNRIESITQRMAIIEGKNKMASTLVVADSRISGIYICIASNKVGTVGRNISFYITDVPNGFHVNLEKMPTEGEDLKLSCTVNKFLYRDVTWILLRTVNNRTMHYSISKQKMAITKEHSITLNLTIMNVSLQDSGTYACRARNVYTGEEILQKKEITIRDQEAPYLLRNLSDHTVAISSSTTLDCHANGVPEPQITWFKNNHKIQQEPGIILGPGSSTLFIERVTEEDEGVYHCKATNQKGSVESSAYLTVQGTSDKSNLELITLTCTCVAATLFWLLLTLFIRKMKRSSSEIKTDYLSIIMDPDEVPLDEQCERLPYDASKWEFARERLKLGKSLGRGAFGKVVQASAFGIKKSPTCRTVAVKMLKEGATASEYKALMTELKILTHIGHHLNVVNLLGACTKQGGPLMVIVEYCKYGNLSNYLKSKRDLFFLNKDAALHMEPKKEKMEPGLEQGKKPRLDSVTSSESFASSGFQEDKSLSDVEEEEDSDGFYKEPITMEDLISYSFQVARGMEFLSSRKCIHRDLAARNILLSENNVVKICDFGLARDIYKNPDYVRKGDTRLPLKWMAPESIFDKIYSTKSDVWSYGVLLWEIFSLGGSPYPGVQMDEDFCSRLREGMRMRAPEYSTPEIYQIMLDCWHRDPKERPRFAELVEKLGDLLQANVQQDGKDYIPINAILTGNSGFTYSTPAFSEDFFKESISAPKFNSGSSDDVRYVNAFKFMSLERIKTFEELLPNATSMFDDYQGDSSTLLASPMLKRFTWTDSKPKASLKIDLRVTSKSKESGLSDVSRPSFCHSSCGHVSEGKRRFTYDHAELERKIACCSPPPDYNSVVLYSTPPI
Experimental: as §1, §2, §3, §4, §5, §6, §7

O=C(Nc1cccc(C(F)(F)F)c1)c1ccc(C2CC2)c(-c2ccc3nc(Nc4cnn(C5CC5)c4)ncc3c2)c1 [Compound S15, 4-cyclopropyl-3-(2-((1-cyclopropyl-1H-pyrazol-4-yl)amino)quinazolin-6-yl)-N-(3-(trifluoromethyl)phenyl)benzamide]
phosphorylation level of downstream ERK1/2, Akt and p38 [1]: significantly inhibit the phosphorylation level of downstream ERK1/2, Akt and p38
IC50 [2]: > 1000 nM
cytotoxic activity on Beas-2B [3]: almost no toxicity
IC50 [4]: > 1000 nM
IC50 [5]: > 1000 nM

From patent publication US11655239B2 (SHANGHAI INSTITUTE OF MATERIAL MEDICA, CHINESE ACADEMY OF …, priority 2019, dated 2023)
